US20240197680A1, “VORUCICLIB DOSING REGIMENS AND METHODS OF TREATMENT INCLUDING THE SAME” (MEI Pharma, Inc., priority 2021, published 2024)
Like-named read-outs stand apart in the source and are kept apart here.

Tests used:
Assay type in all cases: physicochemical
[1] = Stability of voruciclib malonate Batch 02MEI06-01-107; parameters: key to Organic Impurities by HPLC: RRT 1.05: —: below reporting threshold
From the text: The formulation contains colloidal silicon dioxide. The manufacturing process for this batch was similar to that described in Example 10. Stability study samples were packaged in the containers described in Example 9.

[2] = pKa of voruciclib malonate
[3] = Hygroscopicity of voruciclib malonate
[4] = pH range solubility in biorelevant media
Experimental: In general, voruciclib was more prone to gel at suspension concentrations >5 mg/mL and solubilities >0.5 mg/mL.

Gelling in aqueous media = conditions: in water or aqueous buffers across the pH range
Experimental: Voruciclib can form a gel when dissolved in various media, depending on the other chemicals present. […] In general, voruciclib was more prone to gel at suspension concentrations >5 mg/mL and solubilities >0.5 mg/mL.

## CN1CC[C@@H](c2c(O)cc(O)c3c(=O)cc(-c4ccc(C(F)(F)F)cc4Cl)oc23)[C@@H]1CO.O=C(O)CC(=O)O [Voruciclib Malonate, (2R,3S)-3-(2-(2-chloro-4-(trifluoromethyl)phenyl)-5,7-dihydroxy-4-oxo-4H-chromen-8-yl)-2-(hydroxymethyl)-1-methylpyrrolidin-1-ium-2-carboxyacetate]
[1]; 6-months at 25° C./60% RH or 6-months at 40° C./75% RH
  changes observed after storage: No significant changes
[1]; 25° C./60% RH, 1 months
  Appearance by visual inspection: Light
  Assay by HPLC (% w/w, as is): 96.8 % w/w
  Organic Impurities by HPLC: RRT 0.83: 0.06 % area
  Organic Impurities by HPLC: RRT 0.97: 0.55 % area
  Organic Impurities by HPLC: RRT 0.99: 0.59 % area
  Organic Impurities by HPLC: RRT 1.05: 0.09 % area
  Organic Impurities by HPLC: RRT 1.06: 0.08 % area
  Purity by HPLC: 98.6 % area
  Total Impurities: 1.38 % area
  Water Content by KF: 0.47 % w/w
  XRPD: Crystalline
[1]; 25° C./60% RH, 3 months
  Appearance by visual inspection: Light
  Assay by HPLC (% w/w, as is): 97.3 % w/w
  Organic Impurities by HPLC: RRT 0.83: 0.06 % area
  Organic Impurities by HPLC: RRT 0.97: 0.56 % area
  Organic Impurities by HPLC: RRT 0.99: 0.59 % area
  Organic Impurities by HPLC: RRT 1.05: 0.06 % area
  Organic Impurities by HPLC: RRT 1.06: 0.08 % area
  Purity by HPLC: 98.7 % area
  Total Impurities: 1.36 % area
  Water Content by KF: 0.18 % w/w
  XRPD: Crystalline
[1]; 25° C./60% RH, 6 months
  Appearance by visual inspection: Light
  Assay by HPLC (% w/w, as is): 97.7 % w/w
  Organic Impurities by HPLC: RRT 0.83: 0.05 % area
  Organic Impurities by HPLC: RRT 0.97: 0.52 % area
  Organic Impurities by HPLC: RRT 0.99: 0.58 % area
  Organic Impurities by HPLC: RRT 1.05: 0.05 % area
  Organic Impurities by HPLC: RRT 1.06: 0.08 % area
  Purity by HPLC: 98.7 % area
  Total Impurities: 1.32 % area
  Water Content by KF: 0.36 % w/w
  XRPD: Crystalline
[1]; 25° C./60% RH, Initial
  Appearance by visual inspection: Pale
  Assay by HPLC (% w/w, as is): 96.9 % w/w
  Organic Impurities by HPLC: RRT 0.83: 0.06 % area
  Organic Impurities by HPLC: RRT 0.97: 0.55 % area
  Organic Impurities by HPLC: RRT 0.99: 0.62 % area
  Organic Impurities by HPLC: RRT 1.05: 0.15 % area
  Organic Impurities by HPLC: RRT 1.06: 0.11 % area
  Purity by HPLC: 98.5 % area
  Total Impurities: 1.53 % area
  Water Content by KF: 0.56 % w/w
  XRPD: Crystalline
[1]; 40° C./75% RH, 1 months
  Appearance: Light
  Assay by HPLC (% w/w. as is): 96.4 % w/w
  Organic Impurities by HPLC: RRT 0.83: 0.06 % Area
  Organic Impurities by HPLC: RRT 0.97: 0.56 % Area
  Organic Impurities by HPLC: RRT 0.99: 0.58 % Area
  Organic Impurities by HPLC: RRT 1.05: 0.06 % Area
  Organic Impurities by HPLC: RRT 1.06: 0.08 % Area
  Purity by HPLC: 98.7 % area
  Total Impurities: 1.33 % area
  Water Content by KF: 0.44 % w/w
  XRPD: Crystalline
[1]; 40° C./75% RH, 3 months
  Appearance: Light
  Assay by HPLC (% w/w. as is): 97.3 % w/w
  Organic Impurities by HPLC: RRT 0.83: 0.06 % Area
  Organic Impurities by HPLC: RRT 0.97: 0.56 % Area
  Organic Impurities by HPLC: RRT 0.99: 0.59 % Area
  Organic Impurities by HPLC: RRT 1.05: —
  Organic Impurities by HPLC: RRT 1.06: 0.08 % Area
  Purity by HPLC: 98.7 % area
  Total Impurities: 1.29 % area
  Water Content by KF: 0.14 % w/w
  XRPD: Crystalline
[1]; 40° C./75% RH, 6 months
  Appearance: Light
  Assay by HPLC (% w/w. as is): 97.5 % w/w
  Organic Impurities by HPLC: RRT 0.83: 0.05 % Area
  Organic Impurities by HPLC: RRT 0.97: 0.52 % Area
  Organic Impurities by HPLC: RRT 0.99: 0.58 % Area
  Organic Impurities by HPLC: RRT 1.05: —
  Organic Impurities by HPLC: RRT 1.06: 0.08 % Area
  Purity by HPLC: 98.8 % area
  Total Impurities: 1.24 % area
  Water Content by KF: 0.46 % w/w
  XRPD: Crystalline
[1]; 40° C./75% RH, Initial
  Appearance: Pale
  Assay by HPLC (% w/w. as is): 96.9 % w/w
  Organic Impurities by HPLC: RRT 0.83: 0.06 % Area
  Organic Impurities by HPLC: RRT 0.97: 0.55 % Area
  Organic Impurities by HPLC: RRT 0.99: 0.62 % Area
  Organic Impurities by HPLC: RRT 1.05: 0.15 % Area
  Organic Impurities by HPLC: RRT 1.06: 0.11 % Area
  Purity by HPLC: 98.5 % area
  Total Impurities: 1.53 % area
  Water Content by KF: 0.56 % w/w
  XRPD: Crystalline
[2]; first value listed
  pKa: 6.46
[2]; second value listed
  pKa: 9.59
[2]; third value listed
  pKa: 12.1
[3]
  Hygroscopicity: Non-hygroscopic
[3]; listed as Form 1
  Hygroscopicity: non-hygroscopic
[4]; FEDGAS biorelevant medium, pH 3, fassgf or other biorelevant, thermodynamic from solid, pH 3.0 (FEDGAS), late stage of stomach emptying, read-out: Solubility
  solubility: 11300 µg/mL
[4]; FEDGAS biorelevant medium, pH 4.5, fassgf or other biorelevant, thermodynamic from solid, pH 4.5 (FEDGAS), mid stage of stomach emptying, read-out: Solubility
  solubility: 4350 µg/mL
[4]; FEDGAS biorelevant medium, pH 6, fassgf or other biorelevant, thermodynamic from solid, pH 6.0 (FEDGAS), early stage of stomach emptying, read-out: Solubility
  solubility: 2880 µg/mL
[4]; FaSSGF biorelevant medium, pH 1.6, fassgf or other biorelevant, thermodynamic from solid, pH 1.6 (FaSSGF), Stomach after glass of water, tested in duplicate, read-out: Solubility
  solubility: > 13400 µg/mL
[4]; FaSSIF biorelevant medium, pH 6.5, fassif, thermodynamic from solid, pH 6.5 (FaSSIF), Upper intestine after a glass of water, read-out: Solubility
  solubility: 230 µg/mL
[4]; FeSSIF biorelevant medium, pH 5, fessif, thermodynamic from solid, pH 5.0 (FeSSIF), Upper intestine after a meal, read-out: Solubility
  solubility: < 4 µg/mL
[4]; pH 1.6 (FaSSGF), Stomach after glass of water, tested in duplicate
  solubility: 11050 µg/mL
Gelling in aqueous media
  gel formation: does not form a gel
